Experimental data reported in US9512091B2, “Compositions and methods for the modulation of specific amidases for N-acylethanolamines for use in the therapy of inflammatory diseases” (Epitech Group S.r.l., priority 2012, dated 2016).

How the values were obtained:
[1] = molecular target: T1, NAAA (N-Acylethanolamine Hydrolizing Acid Amidase) (Homo sapiens, UniProt Q02083); experiment: Activity on the NAAA enzyme, membranes of HEK-NAAA cells, [14C]PEA hydrolysis; format: biochemical; conditions: HEK-NAAA membranes 50 μg/sample, [14C]PEA 20 μM, 30 min at 37° C.; mean of 10 experiments; read-out: Inhibition of NAAA IC50 (after 30 min incubation)
T1 construct: expressed in transfected cells; host or cells: HEK cells permanently transfected with NAAA (HEK-NAAA); 12000 g membrane fraction
T1 sequence (Q02083 29-359): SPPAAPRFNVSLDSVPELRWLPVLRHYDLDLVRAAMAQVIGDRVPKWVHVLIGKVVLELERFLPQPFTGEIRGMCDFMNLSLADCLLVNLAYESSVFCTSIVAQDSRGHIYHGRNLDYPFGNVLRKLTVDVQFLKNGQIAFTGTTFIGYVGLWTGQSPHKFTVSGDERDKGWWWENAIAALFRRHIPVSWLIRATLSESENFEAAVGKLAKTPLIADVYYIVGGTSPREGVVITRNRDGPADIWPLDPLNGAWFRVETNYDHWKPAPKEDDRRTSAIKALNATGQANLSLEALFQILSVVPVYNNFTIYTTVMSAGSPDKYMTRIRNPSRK
Procedure: The effect of the samples being analysed on the enzymatic activity of the NAAA (N-Acylethanolamine Hydrolizing Acid Amidase) was determined on suitably permanently transfected cellular lines (HEK-NAAA). The cells were homogenised using TRIS-HCl 20 Mm (pH 7.4) by means of dounce. Subsequently a mild centrifugation (10 min, 800 g, 4° C.) was carried out for removing the cellular debris. The cellular fraction containing the membranes was obtained by means of subsequent centrifugation (30 min, 12000 g, 4° C.). The membranes (50 μg/sample) were incubated for 30 min at 37° C. with [^14C]PEA (20 μM; 10000 cpm/sample; 5 nCi/nmols) in presence and in absence of the substances to be tested. The incubation was blocked by adding 2 volumes of CHCl3/CH3OH (1:1/v:v). The radioactivity associated to the aqueous phase containing [^14C]Ethanolamine (produced by the hydrolysis of the radioactive substrate) was determined by means of β-Counter (Beckman Counter, LS6500 Scintillation Counters, Milan).

[2] = Solubility of the prepared product; format: physicochemical; conditions: for solubility / Solubility in ethanol: ethanol; for solubility: organic solvent or mixture
[3] = test system: edema of the legs induced by sub-plantar carrageenan; experiment: Carrageenan edema of the legs, plantar volume by plethysmometer; format: in vivo, rat; conditions: for increase of plantar volume in percentage with respect to carrageenan alone (carrageenan=100): rat, PEA 33 μM/Kg, PEA-OXA (30 mg/Kg) μM/Kg, 5 experiments
Procedure: The experimental model of edema of the legs is induced through sub-plantar injection of a carrageenan solution (containing 50 μl of sterile saline solution and 1% of carrageenan) in the right leg of the animal (rat).
At specific time intervals the plantar volume is measured by means of a plethysmometer (Ugo Basile, Milan, Italy). The increase of the plantar volume is evaluated as the difference between the value obtained in the specific time intervals and the volume at the basal (time 0) measured immediately before the administration of carrageenan.
The data obtained from 5 different experiments, each involving 10 animals per group, were tabled (tab 2) in percentage with respect to the animals treated with carrageenan alone (carrageenan=100): […]

hepatic esterases = conditions: prior-art statement on poor selectivity; cited from earlier work

Compound	IC50 [1]	solubility [2]	Solubility in water [2]	also measured
O=C(CCc1ccccc1)N[C@H]1COC1=O [(S)-N-(2-oxo-3-oxetanyl)-3-phenylpropionamide, reference compound]	0.42 µM			
CCCCCCCCCCCCCCCC1=NC(C)(C)CO1 [Example 5, 2-pentadecyl-4,4-dimethyl-2-oxazoline]		> 10000 µg/mL	poorly soluble	
CCCCCCCCCCCCCCCC1=NC(CO)(CO)CO1 [Example 6, 2-pentadecyl-4,4-bis(hydroxymethyl)-2-oxazoline]		> 10000 µg/mL	poorly soluble	
CCCCCCCCCCCCCCC1=NCCO1 [Example 7, 2-tetradecyl-2-oxazoline]		> 10000 µg/mL	poorly soluble	melting point: 41 to 44 °C
CCCCCCCCCCCCCCCCC1=NCCO1 [Example 8, 2-hexadecyl-2-oxazoline]		> 10000 µg/mL	poorly soluble	melting point: 49 to 51 °C
CCCCCCCCCCCCCCCC1=NC[C@@H](C)O1 [Example 9, 2-pentadecyl-5(R)-methyl-2-oxazoline]		> 10000 µg/mL	poorly soluble	
CCCCCCCCCCCCCCCC1=NC[C@H](C)O1 [Example 10, 2-pentadecyl-5(S)-methyl-2-oxazoline]		> 10000 µg/mL	poorly soluble	
CCCCCCCCCCCCCCCC1=N[C@H](C)CO1 [Example 11, 2-pentadecyl-4(R)-methyl-2-oxazoline]		> 10000 µg/mL	poorly soluble	
CCCCCCCCCCCCCCCC1=N[C@@H](C)CO1 [Example 12, 2-pentadecyl-4(S)-methyl-2-oxazoline]		> 10000 µg/mL	poorly soluble	
CCCCCCCCCCCCCCCC1=NC(CO)CO1 (centres unmarked) [Example 13, 2-pentadecyl-4-hydroxymethyl-2-oxazoline]		> 10000 µg/mL	poorly soluble	
CCCCCCCCCCCCCCCC1=NC(C(=O)OC)CO1 (centres unmarked) [Example 14, 2-pentadecyl-4-methyloxycarbonyl-2-oxazoline]		> 10000 µg/mL	poorly soluble	
CCCCCCCCCCCCCCCC1=NC(C(=O)O)CO1 (centres unmarked) [Example 14b, 2-pentadecyl-4-carboxy-2-oxazoline]		> 10000 µg/mL	poorly soluble	
CCCCCCCCCCCCCCCC1=NCCCO1 [Example 15, 2-pentadecyl-2-oxazine]			poorly soluble	Solubility in ethanol [2]: > 10000 µg/mL
CCCCCCCCCCCCCCCC1=NCCS1 [Example 16, 2-pentadecyl-2-thiazoline]		> 10000 µg/mL	poorly soluble	
CCCCCCCCCCCCCC(=O)NCCO [MEA, Myristoyl ethanolamide, reference compound]	> 50 µM			
CCCCCCCCCCCCCC1=NCCO1 [MEA-OXA, 2-tridecyl-2-oxazoline]	41.5 ± 0.032 µM	> 10000 µg/mL	poorly soluble	
CCCCCCCC/C=C\CCCCCCCC(=O)NCCO [OEA, Oleoylethanolamine, reference compound]	> 50 µM			
CCCCCCCCC=CCCCCCCCC1=NCCO1 [OEA-OXA, 2-(8-heptadecenyl)-2-oxazoline]	38.4 ± 0.034 µM	> 10000 µg/mL	poorly soluble	
CCCCCCCCCCCCCCCC(=O)NCCO [PEA, Palmitoylethanolamide, reference compound]	> 50 µM			increase of plantar volume in percentage with respect to carrageenan alone (carrageenan=100) ([3]; 30 min): 89.2 ± 2.2%; increase of plantar volume in percentage with respect to carrageenan alone (carrageenan=100) ([3]; 1 hr): 82 ± 1.8%; increase of plantar volume in percentage with respect to carrageenan alone (carrageenan=100) ([3]; 2 hrs): 78.3 ± 1.6%; increase of plantar volume in percentage with respect to carrageenan alone (carrageenan=100) ([3]; 3 hrs): 73.9 ± 2.1%; increase of plantar volume in percentage with respect to carrageenan alone (carrageenan=100) ([3]; 4 hrs): 70.1 ± 1.9%; increase of plantar volume in percentage with respect to carrageenan alone (carrageenan=100) ([3]; 5 hrs): 54.5 ± 0.63%; increase of plantar volume in percentage with respect to carrageenan alone (carrageenan=100) ([3]; 6 hrs): 32.9 ± 0.41%
CCCCCCCCCCCCCCCC1=NCCO1 [PEA-OXA, 2-pentadecyl-2-oxazoline]	24.2 ± 0.018 µM	> 10000 µg/mL	poorly soluble	increase of plantar volume in percentage with respect to carrageenan alone (carrageenan=100) ([3]; 30 min): 88.2 ± 2.0%; increase of plantar volume in percentage with respect to carrageenan alone (carrageenan=100) ([3]; 1 hr): 81.2 ± 2.1%; increase of plantar volume in percentage with respect to carrageenan alone (carrageenan=100) ([3]; 2 hrs): 66.6 ± 0.78%; increase of plantar volume in percentage with respect to carrageenan alone (carrageenan=100) ([3]; 3 hrs): 59.6 ± 0.62%; increase of plantar volume in percentage with respect to carrageenan alone (carrageenan=100) ([3]; 4 hrs): 51.4 ± 0.58%; increase of plantar volume in percentage with respect to carrageenan alone (carrageenan=100) ([3]; 5 hrs): 43.0 ± 0.42%; increase of plantar volume in percentage with respect to carrageenan alone (carrageenan=100) ([3]; 6 hrs): 31.2 ± 0.22%; anti-inflammatory activity with respect to PEA ([3]; rat carrageenan edema, especially between 2 and 5 hours from carrageenan): greater anti-inflammatory activity
CCCCCCCCCCCCCCCC1=NCCO1 [PEA-OXLE]	32.1 ± 0.031 µM		poorly soluble	Solubility in ethanol [2]: > 10000 µg/mL
CCCCCCCCCCCCCCCCCC(=O)NCCO [SEA, Stearylethanolamide, reference compound]	> 50 µM			
CCCCCCCCCCCCCCCCCC1=NCCO1 [SEA-OXA, 2-heptadecyl-2-oxazoline]	35 ± 0.021 µM	> 10000 µg/mL	poorly soluble	melting point: 51 to 53 °C
NC(=O)c1cccc(-c2cccc(OC(=O)NC3CCCCC3)c2)c1 [URB597, cyclohexyl carbamic acid 3′-carbamoyl-biphenyl-3-yl ester]				inhibition of hepatic esterases (hepatic esterases): more than 40%
